Assay results reported in patent publication US11391739B2, “Compositions and methods for treating multiple myeloma” (DANA-FARBER CANCER INSTITUTE, INC., priority 2014, dated 2022).

Columns and labels:
Type in all cases: cell-based, human
MM1S-luc cells = assay: Transwell migration assay of MM1S-luc cells
Method: For cell migration assays, the top chamber of transwell plates ([…], Corning Costar) was seeded with 2×10^5 MM1S-luc cells, and the bottom chamber was seeded with either medium (0.1% FBS) alone, BMEC-60 cells, BMEC-60 cell-conditioned medium, or plain medium containing CyPA and/or CD147. After 12 hrs of incubation, MM1S-luc cells that had migrated to the bottom chamber were collected and quantified by Xenogen Imaging. Migration of RPMI, U266, CLL, LPL, or primary tumor cells was evaluated by counting the number of unlabeled cells in the lower chamber. Each experiment was done in triplicate and repeated twice. Recombinant HPLC-purified eCyPA was purchased from BioMart Inc. and eCyPB (PPIB) human recombinant protein was purchased from Abnova. In most instances, 50 ng/ml of eCyPA or eCyPB diluted in serum-free RPMI medium was used. CM was collected from confluent cultures of BMEC-60 cells incubated for 48 hours. When needed, the CM was treated with 100 μ/ml proteinase K (19133, Qiagen) for 2 hrs and then deactivated for 15 min at 70° C. Anti-CD147 (UM-8D6) antibody and monoclonal mouse IgG1 (MOPC31C) were obtained from Ancell; anti-CXCR4 (MAB171) was from R&D systems. Migration data were normalized using the data obtained with medium alone. Results are means.±SD for triplicate assays.

H929 and MM1S cells [1] = assay: Proliferation of MM cells ([3H]TdR incorporation)
Method: Cell proliferation was evaluated by [^3H]TdR incorporation as described in Mani et al., Cancer Res. 69: 7577-7586 (2009). When proliferation of MM cells was determined in the presence of HS5 or BMEC-60 cells, the latter were previously gamma-irradiated (10,000 rads) and dispensed into 96-well plates. Then, MM1S and H929 cells were co-cultured with either BMEC-60 cells, CM alone, CyPA, or CyPB for 72 hrs. Viability of MM1s-Luc cells were co-cultured with BMEC-60 cells and then treated with drugs as described was assessed, using the tumor cell-specific in vitro bioluminescence imaging (SS-BLI).

[2] = system: H929, OPM2, RPMI and primary MM cells; assay: Transwell migration assay of other MM cell lines and primary MM cells; details: 50 ng/ml recombinant protein
Method: FIG. 12. (FIG. 12A) CyPA immunostains in two different NBM, kidney, liver, and lymph node biopsies from healthy subjects. (FIG. 12B) Serum levels of eCyPA in 10 BM aspirates from MGUS and MM patients. (FIG. 12C) Transwell migration assay of MM1S-luc cells incubated in the absence of serum (Medium) or BM serum from two different MM patients with low (PT #4) and high (PT #12) levels of eCyPA (same as FIG. 4I). Migration data was normalized based on data of medium alone. (FIG. 12D) Transwell migration assay of H929, OPM2 and RPMI cells incubated with medium alone or in the presence of 50 ng/ml of recombinant eCyPA. (FIG. 12E) Transwell migration assay of two MM primary tumors (MMPT #1 and MMPT #2) incubated with medium alone or 50 ng/ml of recombinant eCyPA or BMEC-60 cells.
(§1) For cell migration assays, the top chamber of transwell plates ([…], Corning Costar) was seeded with 2×10^5 MM1S-luc cells, and the bottom chamber was seeded with either medium (0.1% FBS) alone, BMEC-60 cells, BMEC-60 cell-conditioned medium, or plain medium containing CyPA and/or CD147. After 12 hrs of incubation, MM1S-luc cells that had migrated to the bottom chamber were collected and quantified by Xenogen Imaging. Migration of RPMI, U266, CLL, LPL, or primary tumor cells was evaluated by counting the number of unlabeled cells in the lower chamber. […]

CLL and LPL cells = assay: Transwell migration assay of CLL and LPL cells; details: 50 ng/ml recombinant eCyPA
Description: FIG. 16. (FIG. 16A) Representative immunostains (top, n=10) and flow cytometric (bottom, n=6) analysis of CD147 expression in BM samples from CLL patients. (FIG. 16B) Representative immunostains (top, n=10) and flow cytometric (bottom, n=6) analysis of CD147 expression in BM samples from LPL patients. (FIG. 16C) Flow cytometry of CD147 (red line) and control isotype (black line) expression in one CLL cell line (HG3) and one primary tumor patient cells (CLLPT #1). (FIG. 16D) Flow cytometry of CD147 (red line) and control isotype (black line) expression in one LPL cell line (BCWM.1) and one primary tumor patient cells (LPLPT #1). […] Migration of primary CLL and LPL tumor patient cells was evaluated in four different samples for each tumor type. […] Unlabeled cell lines and primary tumors were used, and migration was evaluated by counting cells in the bottom chamber. […]
as §1, with “Imaging.” for “Imaging. Migration of RPMI, U266, CLL, LPL, or primary tumor cells was evaluated by counting the number of unlabeled cells in the lower chamber.”

H929 and MM1S cells [3] = assay: Immunoblot analysis of total protein extracts from MM cells
Method: Total protein samples were prepared from non-attached H929 and MM1S cells grown in CM from cultures of BMEC-60 or BMEC-1 cells attached for 72 hr. In some experiments, the cells were co-cultured with BMEC-60 cells using transwell chambers (Corning Costar, 0.45 µm pore diameter). Immunoblotting was performed as described in Takada et al., Sci. Transl. Med. 4, 148ra117 (2012). When MM1S and H929 cells were treated with eCyPA or CD147 Ab, they were first incubated with eCyPA or CD147 Ab for 5 hrs in serum-free medium. Then 0.5% serum was added, and incubation was resumed for another 72 hrs before performing protein preparation. Anti-human primary antibodies included: BCL9 (2D4, Abnova), CyPA (ERPR7511, Abcam), CD147 (#13287, Cell Signaling), pSTAT3 (#9131, Cell Signaling), pERK (#4370, Cell Signaling), PARP (#9542, Cell Signaling), pAKT (#9271, Cell Signaling), Active-β-catenin (05-665, Millipore), Factor VIII (A0082, DAKO), MMP-9 (MAB911, R&D), CyPB (MAB5410, R&D), and horseradish peroxidase (HRP)-conjugated actin (C-11, Santa Cruz). Actin Ab was used as a loading control. Secondary antibodies included: anti-rabbit IgG (HRP)-conjugated (W402b, Promega), and anti-mouse IgG (HRP)-conjugated (W401b, Promega). Protein concentrations were measured in triplicate by Bradford assay (BioRad). Optimal antibody concentrations were used according to the manufacturer's recomendations.

Substance	migration of MM1S-luc cells, CyPB compared with CyPA (MM1S-luc cells; 50 ng/ml each)	proliferation of MM cells (H929 and MM1S cells [1]; tested at much higher concentrations than those in BM serum of MM patients)	migration of other MM cell lines (H929, OPM2, RPMI) [2]	migration of primary MM cells [2]	migration of CLL cells (CLL and LPL cells)	migration of LPL cells (CLL and LPL cells)	signaling pathways (Wnt/β-catenin, STAT3, AKT, ERK) in MM cells (H929 and MM1S cells [3]; 50 ng/ml eCyPA vs without)	higher-glycosylated form of CD147 in MM cells (H929 and MM1S cells [3]; CyPA-treated)	expression of matrix metalloprotease 9 (MMP-9) (H929 and MM1S cells [3]; cells treated with eCyPA)	CD147 expression in MM cells (H929 and MM1S cells [3]; concentration-dependent and time-dependent)	concentration giving maximal migration response (MM1S-luc cells; MM1S-luc cells) [ng/mL]	lowest concentration inducing significant migration (MM1S-luc cells; MM1S-luc cells) [ng/mL]	migration of MM cells incubated with BMEC-1 transduced with CyPA-shRNAs (MM1S-luc cells; addition of 50 ng/ml recombinant eCyPA)	migration of MM1S-luc cells (MM1S-luc cells; purified recombinant protein, time- and concentration-dependent)	proliferation of H929 and MM1S cells (H929 and MM1S cells [1]; concentration-dependent)
CyPB: eCyPB (PPIB) human recombinant protein purchased from Abnova	Major differences were likewise not observed	induces proliferation													
eCyPA: Recombinant HPLC-purified eCyPA (extracellular cyclophilin A) purchased from BioMart Inc.			induced migration	induced migration	enhanced migration	enhanced migration	activation of several signaling pathways	increased	increased	dramatically increased	50	6	restored migration	promoted migration	enhanced
